Test results: patent US20190022225A1, “PROTOCOL FOR INCREASING LIFE EXPECTANCY IN A TEST SUBJECT” (Mayo Foundation for Medical Education and Research, priority 2015, published 2019)

Experiments:
[1] = test system: senescent foreskin fibroblasts (HCA2 and BJ), lung fibroblasts (IMR90); assay: Cell count survival assay of Nutlin-3a on irradiation-induced senescent fibroblasts; assay type: cell-based, human; details: 10 Gy irradiated HCA2, BJ, Nutlin-3a 0, 2.5, 10 μM for 9 days
Experimental: Foreskin fibroblast cell lines HCA2 and BJ, lung fibroblast cell line IMR90, and mouse embryonic fibroblasts were seeded in six-well plates and induced to senesce with 10 Gy of ionizing radiation (IR) or a 24 hr treatment with doxorubicin (Doxo). Senescent phenotype was allowed to develop for at least 7 days, at which point a cell count was made to determine the baseline number of cells. Nutlin-3a treatment was then initiated for a period of at least 9 days. Media alone or media with drug as appropriate was refreshed at least every three days. At the end of the assay time period, cells are counted. Each condition was seeded in three plate wells and counted independently. Initial cell count serves as a control to determine the induction of senescence, as compared to the last day count without nutlin treatment. Initial non-senescent cell count serves as a proxy to determine Nutlin-3a toxicity.
Foreskin fibroblast cell lines HCA2 and BJ, lung fibroblast cell line IMR90, and mouse embryonic fibroblasts were exposed to 10 Gy of ionizing radiation (IR) to induce senescence. […] Percent survival was calculated as [cell count on day 9 of Nutlin-3a treatment/initial cell count on first day of Nutlin-3a treatment].

[2] = test system: non-senescent foreskin fibroblasts (HCA2), lung fibroblasts (IMR90), mouse embryonic fibroblasts (MEF); assay: Nutlin-3a toxicity, cell counts of non-senescent fibroblasts; assay type: cell-based, human; mouse; details: 0, 2.5, 10 μM, 9 days
Experimental: Non-senescent foreskin fibroblasts (HCA2), lung fibroblasts (IMR90), and mouse embryonic fibroblasts (MEF) were treated with varying concentrations (0, 2.5 μM, and 10 μM) of Nutlin-3a for a period of 9 days to assess Nutlin-3a toxicity. Cell counts were taken at the start (NS start) and end of Nutlin-3a treatment. The difference between counts of cells not treated with Nutlin-3a on day 9 (NS 0) and cell counts determined at day zero (NS start) reflects the cell growth over the indicated time period. […] Decrease in apparent survival between NS 0 and NS 2.5 and between NS 0 and NS 10 reflects a decrease in cell growth. Without wishing to be bound by theory, Nutlin-3a may stabilize p53, leading to cell cycle growth arrest.

C57BL/6J mice = assay: Rotarod motor coordination in 23 month old C57BL/6J mice; assay type: in vivo, mouse
Experimental: A group of 34 C57BL/6J mice were tested for motor coordination in a rotarod at 23 months of age. Mice were tested for 4 consecutive days. Each session consisted of 4 runs in which the speed of the rotating rod increased from 4 to 40 rpm over 5 minutes. Mice were allowed to run until they fell. The latency to fall was recorded for each run, and averaged to obtain a single value for each session. Half of the mice were then treated with 50 mg/kg nutlin-3a for 14 consecutive days, via IP injection, while the rest of them were sham injected. 3 weeks after the last day of treatment, motor coordination was assessed following the described procedure.
Values higher than 1 correspond to an increase in motor coordination after treatment. The average of 4 runs for each animal and the average (±SEM) for each group are shown.
The average of 4 runs is shown for each day (±SEM).

[3] = test system: LDLR−/−/3MR double transgenic mice; assay: Atherosclerosis model, LDLR-/-/3MR mice, 100 day ganciclovir treatment period; assay type: in vivo, mouse
Experimental: The impact of clearance of senescent cells on the stability and size of mature atherosclerotic plaques was studied in LDLR^−/− MR double transgenic mice. From 10 weeks of age, LDLR^−/− MR double transgenic mice (10 weeks) and LDLR^−/− single transgenic mice (control) were fed a high fat diet (Harlan Teklad TD.88137) having 42% calories from fat beginning at Week 0 until Week 12.5, when the mice were switched to normal chow diet. Both groups of mice were treated with ganciclovir from week 12.5 over the next 100 days, with each treatment cycle comprising 5 days of ganciclovir (25 mg/kg intraperitoneally daily) and 14 days off. At the end of the 100 day treatment period, the mice were sacrificed, plasma and tissues were collected, and atherosclerosis was quantitated. Descending aortas were dissected and stained with Sudan IV to visualize the plaque lipids. […] Plaques from ganciclovir-treated LDLR^−/− control and LDLR^−/− MR mice (see dashed circled plaques in FIGS. 55A-B, respectively) were harvested and cut into cross-sections and stained with […] the general architecture of the atherosclerotic plaques. “#” indicates fat located on the outside of the aorta (see FIG. 55A). The plaques marked with an “*” and “*” in FIGS. 55A and B, respectively, are shown as stained cross-sections in FIGS. 55B and D, respectively. […] The plaque from the control mice has identifiable “lipid pockets” accumulating within. […] Disruption or tear in the cap of a lipid-rich plaque is a trigger for coronary events through exposure of plaque thrombogenic components to platelets and clotting components of the blood. Plaques that grow more rapidly as a result of rapid lipid deposition and have thin fibrin caps are prone to rupture. Slowly growing plaques with mature fibrin caps tend to stabilize and are not prone to rupture. Taken together, these experiments indicate that removal of senescent cells may affect atherosclerotic plaque architecture and have a stabilizing effect.

[4] = test system: paclitaxel treated p16-3MR mice; assay: Chemotherapy related side effects: voluntary exercise (wheel counts) after paclitaxel in p16-3MR mice; assay type: in vivo, mouse; details: ABT-263 100 mg/kg ip daily 7 days; ganciclovir 25 mg/kg ip daily 3 days
Experimental: ABT-263 (100 mg/kg) was administered intraperitoneally daily for seven days after paclitaxel administration. Two days after the last dose of ABT-263, all groups of animals were housed in metabolic cages (promethion, sable systems international, Las Vegas, Nev.) to monitor voluntary exercise as determined by wheel counts. Data were collected and analyzed two days later. Clearance of senescent cells by ABT-263 and ganciclovir restored approximately 70% of wheel count reduction caused by chemotherapy treatment.

[5] = test system: p16-3MR mice fed a high fat diet; assay: High fat feeding-induced senescence in p16-3MR mice, SA-β-Gal staining of adipose tissue; assay type: in vivo, mouse; details: 25 mg/kg daily for five consecutive days; p=<0.004
Experimental: Groups of p16-3MR mice (n=6) were fed a high fat diet (60% fat) for four months mice or a regular chow diet. The presence of senescence cells was determined by measuring luminescence (i.e., p16 positive cells). […] Animals were then treated with ganciclovir or vehicle to determine if removal of senescent cells reduced the presence of senescent cells in adipose tissue. Groups of animals were treated with ganciclovir or vehicle. Ganciclovir (25 mg/kg) was administered daily for five consecutive days. The presence of senescent cells in perirenal, epididymal, or subcutaneous inguinal adipose tissue was detected by SA-β-Gal staining. Data were analyzed by ANOVA.

[6] = test system: p16-3MR mice fed a high fat diet; assay: Glucose tolerance, insulin tolerance and body parameters in high fat fed p16-3MR mice; assay type: in vivo, mouse
Experimental: Groups of p16-3MR mice (n=9) were fed a high fat diet for four months mice or a regular chow diet. Animals were then treated with ganciclovir (3 rounds of 25 mg/kg ganciclovir administered daily for five consecutive days) or vehicle. A glucose bolus was given at time zero, and blood glucose was monitored at 20, 30, 60, and 120 minutes after delivering glucose to determine glucose disposal (see FIG. 69A). […] Insulin sensitivity was also determined (Insulin Tolerance Testing (ITT)). […] Changes in weight, body composition, and food intake were also monitored.

Row | Compound | cell survival of senescent fibroblasts (percent survival) [1] | toxicity to non-senescent fibroblasts (percent growth) [2] | rotarod performance (latency to fall) (C57BL/6J mice; 50 mg/kg IP 14 days, after three days of training, p<0.05) | ratio of latency to fall, fourth session after treatment / fourth baseline session (C57BL/6J mice; p<0.01) | rotarod performance over the training period (C57BL/6J mice; p<0.01, 2-way ANOVA) | % of the aorta covered in plaques ([3]; area of Sudan IV staining, versus LDLR−/− control mice) | atherosclerotic plaques in descending aorta (Sudan IV staining) ([3]; cycles of 5 days 25 mg/kg ip daily, 14 days off, 100 days) | plaque morphology ([3]; stained cross-sections) | restoration of wheel count reduction caused by chemotherapy treatment [4] | presence of senescent cells in epididymal fat (SA-β-Gal) [5] | insulin tolerance testing: decrease in blood glucose ([6]; 0, 14, 30, 60 and 120 minutes) | glucose tolerance test AUC versus vehicle ([6]; 3 rounds of 25 mg/kg daily for five days) | Hemoglobin A1c ([6]; high fat diet) | body weight, body composition (percent of fat), food intake ([6]; mouse, in vivo)
1 | COc1ccc(C2=N[C@@H](c3ccc(Cl)cc3)[C@@H](c3ccc(Cl)cc3)N2C(=O)N2CCNC(=O)C2)c(OC(C)C)c1 [Nutlin-3a] | reduced cell survival | reduces proliferation but is non-toxic | increased rotarod performance | higher average ratio | better performance |  |  |  |  |  |  |  |  | 
2 | Nc1nc(O)c2ncn(COC(CO)CO)c2n1 [ganciclovir] |  |  |  |  |  | significantly lower | fewer atherosclerotic plaques with less intense staining | presence of a thick fibrin cap and the absence of lipid pockets | approximately 70% | significant reduction | greater decrease in blood glucose | significantly lower | lower | did not alter
